Data as given in PubChem BioAssay AID1963842 (Molecular Pharmacology Branch, DTP, NCI, 2024).

Test system: 677734-321-R-J1-PDC complex spheroid viability
Experiment: Anticancer human tumor 677734-321-R-J1-PDC patient-derived soft tissue sarcoma cell line growth inhibition [POLQ]
Details: for IC50: curve of first compound; for viability, T/C: stronger effect = lower value
In short: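 Three-cell-type spheroids modelling solid tumor plus stroma served as the readout system; POL inhibitors were tested individually and in combination, concentration ranges set by clinical Cmax where known.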
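Note: spheroids exposed to compounds for one week.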
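Throughout, for viability, T/C: 100% = vehicle DMSO treated spheroids.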

Question: How did the IC50 (second compound 0.0316 µM) turn out when `C#Cc1c(F)ccc2cc(O)cc(-c3ncc4c(N5CC6CCC(C5)N6)nc(OCC56CCCN5CC(F)C6)nc4c3F)c12` (configuration not stated) + COC1C(OC(N)=O)C(O)C(Oc2ccc3c(O)c(NC(=O)c4ccc(O)c(CC=C(C)C)c4)c(=O)oc3c2C)OC1(C)C was run?
Answer: The IC50 was greater than 10 µM.

Question: What about the IC50 (second compound 0.1 µM) of the same molecule?
Answer: The IC50 was greater than 10 µM.

Question: And the IC50 (second compound 0.316 µM)?
Answer: The IC50 was greater than 10 µM.

Question: What about the IC50 (second compound 1 µM) of the same molecule?
Answer: The IC50 was greater than 10 µM.

Question: And the IC50 (second compound 3.16 µM)?
Answer: Its IC50 is greater than 10 µM.

Question: What about the IC50 (second compound 10 µM) of the same molecule?
Answer: The IC50 was greater than 10 µM.

Question: What about the viability, T/C (second compound 0.0316 µM, first compound 0.0316 µM) of the same molecule?
Answer: Its viability, T/C is 108%.

Question: What about the viability, T/C (second compound 0.0316 µM, first compound 0.1 µM) of the same molecule?
Answer: Its viability, T/C is 92.2%.

Question: What about the viability, T/C (second compound 0.0316 µM, first compound 0.316 µM) of the same molecule?
Answer: The viability, T/C was 104%.

Question: And the viability, T/C (second compound 0.0316 µM, first compound 1 µM)?
Answer: The viability, T/C was 104%.

Question: And the viability, T/C (second compound 0.0316 µM, first compound 3.16 µM)?
Answer: Its viability, T/C is 111%.

Question: And the viability, T/C (second compound 0.0316 µM, first compound 10 µM)?
Answer: Its viability, T/C is 98%.

Question: And the viability, T/C (second compound 0.1 µM, first compound 0.0316 µM)?
Answer: The viability, T/C was 100%.

Question: And the viability, T/C (second compound 0.1 µM, first compound 0.1 µM)?
Answer: The viability, T/C was 104%.

Question: And the viability, T/C (second compound 0.1 µM, first compound 0.316 µM)?
Answer: The viability, T/C was 95.1%.

Question: And the viability, T/C (second compound 0.1 µM, first compound 1 µM)?
Answer: The viability, T/C was 99.7%.

Question: And the viability, T/C (second compound 0.1 µM, first compound 3.16 µM)?
Answer: Its viability, T/C is 104%.

Question: And the viability, T/C (second compound 0.1 µM, first compound 10 µM)?
Answer: The viability, T/C was 98.7%.

Question: And the viability, T/C (second compound 0.316 µM, first compound 0.0316 µM)?
Answer: The viability, T/C was 108%.

Question: What about the viability, T/C (second compound 0.316 µM, first compound 0.1 µM) of the same molecule?
Answer: The viability, T/C was 98.8%.

Question: And the viability, T/C (second compound 0.316 µM, first compound 0.316 µM)?
Answer: The viability, T/C was 102%.

Question: What about the viability, T/C (second compound 0.316 µM, first compound 1 µM) of the same molecule?
Answer: Its viability, T/C is 107%.

Question: And the viability, T/C (second compound 0.316 µM, first compound 3.16 µM)?
Answer: The viability, T/C was 107%.

Question: And the viability, T/C (second compound 0.316 µM, first compound 10 µM)?
Answer: The viability, T/C was 102%.

Question: And the viability, T/C (second compound 1 µM, first compound 0.0316 µM)?
Answer: The viability, T/C was 104%.

Question: And the viability, T/C (second compound 1 µM, first compound 0.1 µM)?
Answer: Its viability, T/C is 97.5%.

Question: What about the viability, T/C (second compound 1 µM, first compound 0.316 µM) of the same molecule?
Answer: The viability, T/C was 111%.

Question: And the viability, T/C (second compound 1 µM, first compound 1 µM)?
Answer: The viability, T/C was 109%.

Question: What about the viability, T/C (second compound 1 µM, first compound 3.16 µM) of the same molecule?
Answer: Its viability, T/C is 103%.

Question: And the viability, T/C (second compound 1 µM, first compound 10 µM)?
Answer: Its viability, T/C is 103%.

Question: And the viability, T/C (second compound 3.16 µM, first compound 0.0316 µM)?
Answer: The viability, T/C was 103%.

Question: And the viability, T/C (second compound 3.16 µM, first compound 0.1 µM)?
Answer: The viability, T/C was 95.5%.

Question: And the viability, T/C (second compound 3.16 µM, first compound 0.316 µM)?
Answer: The viability, T/C was 101%.

Question: And the viability, T/C (second compound 3.16 µM, first compound 1 µM)?
Answer: Its viability, T/C is 105%.

Question: What about the viability, T/C (second compound 3.16 µM, first compound 3.16 µM) of the same molecule?
Answer: The viability, T/C was 103%.

Question: And the viability, T/C (second compound 3.16 µM, first compound 10 µM)?
Answer: Its viability, T/C is 102%.

Question: And the viability, T/C (second compound 10 µM, first compound 0.0316 µM)?
Answer: Its viability, T/C is 112%.

Question: What about the viability, T/C (second compound 10 µM, first compound 0.1 µM) of the same molecule?
Answer: The viability, T/C was 102%.

Question: What about the viability, T/C (second compound 10 µM, first compound 0.316 µM) of the same molecule?
Answer: The viability, T/C was 103%.

Question: And the viability, T/C (second compound 10 µM, first compound 1 µM)?
Answer: Its viability, T/C is 100%.

Question: What about the viability, T/C (second compound 10 µM, first compound 3.16 µM) of the same molecule?
Answer: The viability, T/C was 98.7%.

Question: And the viability, T/C (second compound 10 µM, first compound 10 µM)?
Answer: The viability, T/C was 111%.
